# Source: ChEMBL document CHEMBL6127124, “Structure-Activity Relationships and Discovery of (S)-5-(tert-Butyl)-11-(difluoromethoxy)-9-methoxy-2-oxo-1,2,5,6-tetrahydropyrido[2',1':2,3]imidazo[4,5-h]quinoline-3-carboxylic Acid (AB-161), a Novel Orally Available and Liver-Centric HBV RNA Destabilizer” (J Med Chem, 2024)
# Tests used:
# [1] = Free Cmax in Beagle dog at 45 mg/kg, po qd measured after 91 days; type: ADME, organism-based, Canis lupus familiaris; settings: in vivo, 2184 h, time 91 day
# [2] = Total AUC (0 to 24 hrs) in Beagle dog at 15 mg/kg, po qd measured after 91 days; type: ADME, organism-based, Canis lupus familiaris; settings: in vivo, time 91 day
# [3] = Drug concentration in Sprague-Dawley rat plasma at 10 mg/kg, po measured for 24 hrs by LC-MS/MS analysis; type: ADME, organism-based; settings: read-out: Ct
# [4] = Drug concentration in Sprague-Dawley rat liver at 10 mg/kg, po measured for 24 hrs by LC-MS/MS analysis; type: ADME, organism-based; settings: read-out: Ct
# CYP2C9 = CYP2C9 (Homo sapiens, UniProt P11712); assay: Inhibition of CYP2C9 in human liver microsomes using diclofenac as substrate preincubated for 30 min followed by NADPH addition measured after 12 mins by LC-MS/MS analysis; type: ADME, Microsome; settings: human, liver microsomes, probe diclofenac
# [5] = Total Cmax in Beagle dog at 15 mg/kg, po qd measured after 91 days; type: ADME, organism-based, Canis lupus familiaris; settings: in vivo, time 91 day
# Hepatitis B virus [6] = assay: Antiviral activity against HBV infected in immuno-competent mouse model assessed as log10 reduction serum HBsAg; type: functional
# [7] = Toxicity in Beagle dog assessed as sporadic splayed limbs at 5 to 15 mg/kg, po qd measured after 38 days; type: organism-based, Canis lupus familiaris; settings: in vivo, 912 h, dose 5-15 mg/kg, time 38 day
# [8] = Free AUC (0 to 24 hrs) in Beagle dog at 45 mg/kg, po qd measured after 91 days; type: ADME, organism-based, Canis lupus familiaris; settings: in vivo, 2184 h, time 91 day
# [9] = Selectivity ratio of drug concentration in liver in Sprague-Dawley rat at 10 mg/kg, po measured for 24 hrs to EC90 for antiviral activity against HBV infected in human HepG2.2.15 cells assessed as reduction in HBsAg level; type: ADME, organism-based; settings: in vivo
# [10] = AUC (0 to 24 hrs) in Sprague-Dawley rat at 10 mg/kg, po measured for 24 hrs by LC-MS/MS analysis; type: ADME, organism-based; settings: in vivo
# Hepatitis B virus [11] = assay: In vivo destabilization of HBV RNA in immuno-competent mouse model of chronic HBV assessed as log10 reduction in HBV DNA; type: functional
# CYP3A4 = CYP3A4 (Homo sapiens, UniProt P08684); assay: Inhibition of CYP3A4 in human liver microsomes using testosterone as substrate preincubated for 30 min followed by NADPH addition measured after 12 mins by LC-MS/MS analysis; type: ADME, Microsome; settings: human, liver microsomes, probe testosterone
# RNA = assay: Destabilization of HBV RNA assessed as decrease in HBsAg production by cell-based assay; settings: Hepatitis B virus
# CYP1A2 = target: T1, CYP1A2 (Homo sapiens, UniProt P05177); assay: Inhibition of CYP1A2 in human liver microsomes using phenacetin as substrate preincubated for 30 min followed by NADPH addition measured after 12 mins by LC-MS/MS analysis; type: ADME, Microsome; settings: human, liver microsomes, probe phenacetin
# T1 sequence (P05177 whole entry): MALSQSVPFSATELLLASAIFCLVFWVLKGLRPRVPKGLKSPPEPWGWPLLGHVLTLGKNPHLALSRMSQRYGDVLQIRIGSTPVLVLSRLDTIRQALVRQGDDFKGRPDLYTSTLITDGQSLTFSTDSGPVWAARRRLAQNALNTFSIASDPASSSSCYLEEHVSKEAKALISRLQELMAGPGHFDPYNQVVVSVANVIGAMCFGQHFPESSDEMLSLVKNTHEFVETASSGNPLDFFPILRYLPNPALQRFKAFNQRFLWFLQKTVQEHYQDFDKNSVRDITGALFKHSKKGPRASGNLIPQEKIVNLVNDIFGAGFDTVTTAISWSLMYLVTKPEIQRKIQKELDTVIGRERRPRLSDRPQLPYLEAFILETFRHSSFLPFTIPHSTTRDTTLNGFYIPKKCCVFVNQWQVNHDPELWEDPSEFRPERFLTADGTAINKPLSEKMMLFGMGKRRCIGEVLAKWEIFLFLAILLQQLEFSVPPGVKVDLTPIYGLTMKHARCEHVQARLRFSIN
# [12] = Free AUC (0 to 24 hrs) in Beagle dog at 60 mg/kg, po qd measured after 91 days; type: ADME, organism-based, Canis lupus familiaris; settings: in vivo, 2184 h, time 91 day
# [13] = Total Cmax in Beagle dog at 45 mg/kg, po qd measured after 91 days; type: ADME, organism-based, Canis lupus familiaris; settings: in vivo, time 91 day
# [14] = Total Cmax in Beagle dog at 60 mg/kg, po qd measured after 91 days; type: ADME, organism-based, Canis lupus familiaris; settings: in vivo, time 91 day
# [15] = Total AUC (0 to 24 hrs) in Beagle dog at 60 mg/kg, po qd measured after 91 days; type: ADME, organism-based, Canis lupus familiaris; settings: in vivo, time 91 day
# [16] = Oral bioavailability in CD-1 mouse at 10 mg/kg measured for 24 hrs by LC-MS/MS analysis; type: ADME, organism-based; settings: in vivo
# [17] = Free Cmax in Beagle dog at 15 mg/kg, po qd measured after 91 days; type: ADME, organism-based, Canis lupus familiaris; settings: in vivo, 2184 h, time 91 day
# [18] = Oral bioavailability in Sprague-Dawley rat at 10 mg/kg measured for 24 hrs by LC-MS/MS analysis; type: ADME, organism-based; settings: in vivo
# [19] = Toxicity in female Beagle dog assessed as fold decrease in cholesterol level at 15 to 45 mg/kg, po qd measured for 60 days; type: organism-based, Canis lupus familiaris; design: scale not given: the % may be the effect or the level left; settings: in vivo, 1440 h, dose 15-45 mg/kg, time 60 day
# [20] = Total Cmax in Beagle dog at 45 mg/kg, po qd measured after 60 days; type: ADME, organism-based, Canis lupus familiaris; settings: in vivo, time 60 day
# [21] = Free Cmax in Beagle dog at 15 mg/kg, po qd measured after 60 days; type: ADME, organism-based, Canis lupus familiaris; settings: in vivo, 1440 h, time 60 day
# [22] = Total Cmax in Beagle dog at 15 mg/kg, po qd measured after 60 days; type: ADME, organism-based, Canis lupus familiaris; settings: in vivo, time 60 day
# [23] = Total AUC (0 to 24 hrs) in Beagle dog at 45 mg/kg, po qd measured after 60 days; type: ADME, organism-based, Canis lupus familiaris; settings: in vivo, time 60 day
# [24] = Toxicity in Beagle dog assessed as uncoordinated movements at 15 to 45 mg/kg, po qd measured after 60 days; type: organism-based, Canis lupus familiaris; settings: in vivo, 1440 h, dose 15-45 mg/kg, time 60 day
# [25] = Toxicity in female Beagle dog assessed as decrease in total protein level at 15 to 45 mg/kg, po qd measured for 60 days; type: organism-based, Canis lupus familiaris; design: scale not given: the % may be the effect or the level left; settings: in vivo, 1440 h, dose 15-45 mg/kg, time 60 day
# [26] = Free Cmax in Beagle dog at 45 mg/kg, po qd measured after 60 days; type: ADME, organism-based, Canis lupus familiaris; settings: in vivo, 1440 h, time 60 day
# Hepatitis B virus [27] = assay: Antiviral activity against HBV infected in human primary hepatocytes assessed as reduction in HBsAg production pre-infected cells with virus followed by inoculum removal and subsequent addition of compounds with replenishment on days 4,7,9,11 and 14 post-infection measured after 16 days; type: functional, organism-based; settings: Hepatocyte, 384 h
# [28] = Toxicity in male Beagle dog assessed as fold decrease in total protein level at 15 mg/kg, po qd measured for 60 days; type: organism-based, Canis lupus familiaris; design: scale not given: the % may be the effect or the level left; settings: in vivo, 1440 h, time 60 day
# Hepatitis B virus [29] = assay: Antiviral activity against HBV infected in human primary hepatocytes assessed as reduction in HBeAg production pre-infected cells with virus followed by inoculum removal and subsequent addition of compounds with replenishment on days 4,7,9,11 and 14 post-infection measured after 16 days; type: functional, organism-based; settings: Hepatocyte, 384 h
# [30] = Toxicity in male Beagle dog assessed as fold increase in alanine aminotransferase level at 45 mg/kg, po qd measured for 60 days; type: organism-based, Canis lupus familiaris; settings: in vivo, 1440 h, time 60 day
# [31] = Ratio of drug concentration in liver to plasma of Sprague-Dawley rat at 5 mg/kg, po measured for 24 hrs by LC-MS/MS analysis; type: ADME, organism-based; settings: liver and plasma
# Chain of CYP3A4 (P08684 whole entry): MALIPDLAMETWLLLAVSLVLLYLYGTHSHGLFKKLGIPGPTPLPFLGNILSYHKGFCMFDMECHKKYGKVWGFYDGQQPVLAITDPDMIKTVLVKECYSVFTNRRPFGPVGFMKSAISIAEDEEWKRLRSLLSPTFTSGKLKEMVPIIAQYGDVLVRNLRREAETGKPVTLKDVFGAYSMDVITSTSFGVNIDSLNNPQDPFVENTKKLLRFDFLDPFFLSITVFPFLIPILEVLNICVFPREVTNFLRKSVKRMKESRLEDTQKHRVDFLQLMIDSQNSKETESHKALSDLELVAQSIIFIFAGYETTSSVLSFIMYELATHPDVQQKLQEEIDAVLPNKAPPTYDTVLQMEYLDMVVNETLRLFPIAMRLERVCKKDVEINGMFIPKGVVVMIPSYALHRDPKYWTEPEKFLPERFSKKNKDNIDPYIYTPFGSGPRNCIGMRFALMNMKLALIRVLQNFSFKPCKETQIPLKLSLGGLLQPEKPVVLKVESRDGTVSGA
# Chain of CYP2C9 (P11712 whole entry): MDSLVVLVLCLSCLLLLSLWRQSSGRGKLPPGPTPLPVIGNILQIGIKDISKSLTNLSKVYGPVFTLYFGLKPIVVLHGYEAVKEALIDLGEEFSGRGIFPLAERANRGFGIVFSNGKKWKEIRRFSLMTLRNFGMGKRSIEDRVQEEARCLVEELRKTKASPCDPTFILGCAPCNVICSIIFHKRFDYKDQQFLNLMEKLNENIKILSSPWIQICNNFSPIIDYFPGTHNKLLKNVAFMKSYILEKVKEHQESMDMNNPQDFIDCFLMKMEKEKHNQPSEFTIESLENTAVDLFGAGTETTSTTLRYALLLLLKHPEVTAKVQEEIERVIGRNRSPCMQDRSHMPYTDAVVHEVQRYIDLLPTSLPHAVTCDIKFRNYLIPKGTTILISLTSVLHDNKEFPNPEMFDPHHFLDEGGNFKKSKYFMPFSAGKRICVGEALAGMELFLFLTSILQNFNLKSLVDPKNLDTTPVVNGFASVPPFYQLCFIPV
compound,measurement,setting,value
COCCCOc1cc2c(nc1OC)-c1cc(=O)c(C(=O)O)cn1[C@H](C(C)C)C2,fCmax,[1],10300 ng/mL
same,AUC at 2184 h,[2],30600 ng·h/mL
same,concentration at 24 h,[3],28.2 ng/g
same,concentration at 24 h,[4],93 ng/g
same,IC50 at 12 min,CYP2C9,> 25000 nM
same,Cmax,[5],11500 ng/mL
same,log(activity),Hepatitis B virus [6],<=0.94
same,Activity,[7],Toxic
same,fAUC,[8],35300 ng·h/mL
same,Ratio,[9],5
same,AUC(0-t) at 24 h,[10],13900 ng·h/mL
same,log(activity),Hepatitis B virus [11],<=0.94
same,IC50 at 12 min,CYP3A4,> 25000 nM
same,EC50,RNA,1.4 nM
same,IC50 at 12 min,CYP1A2,> 25000 nM
same,fAUC,[12],47500 ng·h/mL
same,Cmax,[13],27800 ng/mL
same,Cmax,[14],18700 ng/mL
same,AUC at 2184 h,[15],128000 ng·h/mL
same,bioavailability,[16],112%
same,fCmax,[17],4270 ng/mL
same,bioavailability,[18],80%
COc1cc(OC(F)F)c2nc3c(n2c1)C[C@@H](C(C)(C)C)c1cc(C(=O)O)c(=O)[nH]c1-3,Activity,[19],< 30%
same,Cmax,[20],17800 ng/mL
same,fCmax,[21],653 ng/mL
same,Cmax,[22],13900 ng/mL
same,AUC at 1440 h,[23],65900 ng·h/mL
same,Activity,[24],Non-Toxic
same,Activity,[25],< 15%
same,fCmax,[26],834 ng/mL
same,EC50,Hepatitis B virus [27],8.5 nM
same,Activity,[28],< 20%
same,EC50,Hepatitis B virus [29],8.5 nM
same,fold change (FC),[30],< 2
CC(C)(C)[C@@H]1Cc2c(nc3c(C(F)(F)F)cc(C4CC4)cn23)-c2[nH]c(=O)c(C(=O)O)cc21,Kp at 24 h,[31],920
